According to US12030908B2, “Antimicrobial compounds, compositions, and uses thereof” (Lakewood Amedex, Inc., priority 2017, dated 2024):
Where “and” joins values, the source holds several entries; their conditions need not be identical. Equal values may be shown once.

Tests used:
[1] = system: Streptococcus pneumoniae (PRSP); experiment: MIC at pH 3.5, CLSI, Mueller-Hinton broth; type: cell-based
[2] = system: Aspergillus fumigatus (ATCC13073); experiment: Neutropenic lung infection model in mice, lung fungal burden and mortality (Example 24); type: in vivo, BALB/c mice
Protocol: Neutropenic, BALB/c female mice, all of which were from 6 to 8 weeks of age, were infected intranasally with Aspergillus fumigatus (ATCC13073) at inoculum strengths of ˜1×10^6 conidia/animal (Part A) and ˜1×10^4 conidia/animal (Part B). Twenty four hours after infection, animals were treated by aerosol route with vehicle and Nu-8 (10% solution) for one, two, three, and five days. Two hours following treatment, groups of mice were terminated on days 1, 3, and 5, and lungs were collected to determine fungal load. A similar procedure was followed at inoculum strengths of ˜1×10^3 conidia/animal (Part C) and ˜1×10^2 conidia/animal (Part D).
This experiment was performed in four parts: Part A (infection with 1×10^6 conidia/animal), Part B (infection with 1×10^4 conidia/animal), Part C (infection with 1×10^3 conidia/animal), and Part D (infection with 1×10^2 conidia/animal). The mice were separated into cohorts in accordance with Table 13 (Part A), Table 14 (Part B), Table 15 (Part C), and Table 16 (Part D).
On day −4 (four days before the date of infection), each mouse was dosed with a single intraperitoneal injection of cyclophosphamide equivalent to 150 mg/kg and returned to its cage. On day −1 (one day before infection) each mouse received a dose equivalent to 100 mg/kg of cyclophosphamide. Neutropenia was confirmed with differential leukocyte count on day 0.
One week before infection, an aliquot from the glycerol stocks of Aspergillus fumigatus (ATCC13073) was taken and grown on Potato Dextrose Agar (PDA) plates for seven days in an incubator at 25° C. After seven days, conidia were collected by scraping the colonies from the PDA plate with a sterile loop and washing the surface of the plate with sterile distilled water. The conidial suspension was collected into a sterile tube and filtered through 10 layers of sterile cheese (muslin) cloth/Whatman filter paper to remove hyphal fragments from the spore suspension. The optical density of the filtered suspension was adjusted to an equivalent of ˜1×10^8 conidia/ml. The inoculum was serially diluted in normal saline and viability was checked by hemocytometer.
Animals were divided into different groups as specified in the experimental design (Tables 13-16). Infections were conducted in a biological safety cabinet, with appropriate personnel protection. Mice were placed into an induction chamber and anesthesia was induced by exposing the animals to 3%-5% Isoflurane in an oxygen flow set at approximately 1 liter per minute (LPM). Once the animals were in a sufficiently deep plane of anesthesia, they were removed and infected. Infection was done by injection of 0.02 ml (containing ˜1×10^8 CFU/ml for Part A, ˜1×10^6 CFU/ml for Part B, ˜1×10^5 CFU/ml for Part C, and ˜1×10^4 CFU/ml for Part D). 10 μl was instilled into each nostril of the anesthetized animal (˜2×10^6 CFU/animal for Part A, ˜2×10^4 CFU/animal for Part B, ˜2×10^3 CFU/animal for Part C, ˜2×10^2 CFU/animal for Part D) using a 10 μl pipette. A gentle shaking/mixing of inoculum between two animals was followed for uniform distribution.
The vehicle used for the test compound was saline (0.9% NaCl adjusted to pH 3.5 with citric acid). To make 10% solution, 15 g Nu-8 was weighed and dissolved in 145 ml of the saline and the pH of the solution was adjusted to 3.5 with citric acid (0.1 M) in a final volume of 150 ml.
Treatment began twenty four hours after infection. Test formulations were administered by aerosol route with nose only apparatus connected to a nebulizer (Omron Ne-C28 Compressor Nebulizer with a volume capacity of 15 ml, Particle size 3 μm, Nebulization rate: 0.5 ml/min and Aerosol output rate: 0.09 ml/min). Test formulations were placed into the nebulizer fluid cup; animals were placed in the nose-only apparatus, and the entire system was placed inside a Class II Biosafety Cabinet. […]

In the case of `CCCCOP(=O)(O)OC[C@H]1O[C@@H](n2ccc(N)nc2=O)C[C@@H]1OP(=O)(O)OCCCC` [Nu-8, sodium ((2R,3S,5R)-5-(4-amino-2-oxopyrimidin-1(2H)-yl)-3-((butoxyoxidophosphor-yl)oxy)tetrahydrofuran-2-yl)methyl butyl phosphate], the “Nu-8 MIC (mg/mL) at pH 3.5” value [1] is reported as 9.38-18.75 mg/mL, the “Log10 CFU/g lung” value ([2]; Part A, 1×10^6 conidia/animal, 10% aerosol single dose, individual mice) is reported as 6.16 Log10 CFU/g lung and 5.71 Log10 CFU/g lung and 4.51 Log10 CFU/g lung and 5.41 Log10 CFU/g lung and 5.14 Log10 CFU/g lung and 5.76 Log10 CFU/g lung and the “% Mortality” value ([2]; Part A, 10% aerosol, 3 doses, once daily for 3 days, day 3) is reported as 50% and 50 [day 3] %. For the same compound, the “Log10 CFU/g lung” value ([2]; Part A, 10% aerosol, 3 doses, once daily for 3 days, individual surviving mice) was 4.96 Log10 CFU/g lung and 5.48 Log10 CFU/g lung and 3.23 Log10 CFU/g lung, the “Mean ± SD (Log10 CFU/g lung)” value ([2]; Part A, 10% aerosol, 3 doses, once daily for 3 days, n = 3) was 4.56 ± 1.18 Log10 CFU/g lung and the “Log10 CFU/g lung” value ([2]; Part A, 10% aerosol, 5 doses, once daily for 5 days, individual surviving mice) was 4.28 Log10 CFU/g lung and 4.06 Log10 CFU/g lung. For the same compound, the “Mean (Log10 CFU/g lung)” value ([2]; Part A, 10% aerosol, 5 doses, once daily for 5 days, n = 2) was 4.17 (n = 2) Log10 CFU/g lung, the “efficacy vs day 1 control and day 3 vehicle controls” value ([2]; Part A, day 3 and day 5) was “marked efficacy” and the “efficacy vs vehicle control” value ([2]; Part A, single dose (day 1), p>0.05) was “did not show significant efficacy”. For the same compound, the mean fungal count ([2]; Part A, treated with Nu-8 (10%) for three days, day 3) was 4.56 log10 spores/g lung, the mean fungal count ([2]; Part A, treatment with Nu-8 (10%), day 5) was 4.17 log10 spores/g lung and the “Mean ± SD (Log10 spores/g lung)” value ([2]; Part B, 1×10^4 conidia/animal, 10% aerosol single dose (Table 20 group 3), terminated day 3) was 4.41±0.29 Log10 spores/g lung. For the same compound, the Log10 spores/g lung ([2]; Part B, 1×10^4 conidia/animal, 10% aerosol single dose, terminated day 3, individual mice) was 3.99 Log10 spores/g lung and 4.72 Log10 spores/g lung and 4.51 Log10 spores/g lung and 4.83 Log10 spores/g lung and 4.23 Log10 spores/g lung and 4.45 Log10 spores/g lung and 4.14 Log10 spores/g lung and 4.34 Log10 spores/g lung, the “Mean ± SD (Log10 spores/g lung)” value ([2]; Part B, 10% aerosol, 3 doses, once daily for 3 days) was 4.31±0.29 Log10 spores/g lung and the Log10 spores/g lung ([2]; Part B, 10% aerosol, 3 doses, once daily for 3 days, individual mice) was 4.29 Log10 spores/g lung and 4.45 Log10 spores/g lung and 3.93 Log10 spores/g lung and 4.28 Log10 spores/g lung and 4.34 Log10 spores/g lung and 4.87 Log10 spores/g lung and 4.24 Log10 spores/g lung and 4.03 Log10 spores/g lung. The “Mean ± SD (Log10 spores/g lung)” value ([2]; Part C, 1×10^3 conidia/animal, 10% aerosol, 3 doses, once daily for 3 days) was 3.65±0.50 Log10 spores/g lung, the Log10 spores/g lung ([2]; Part C, 1×10^3 conidia/animal, 10% aerosol, 3 doses, once daily for 3 days, individual mice) was 4.30 Log10 spores/g lung and 3.67 Log10 spores/g lung and 3.46 Log10 spores/g lung and 4.05 Log10 spores/g lung and 3.54 Log10 spores/g lung and 2.85 Log10 spores/g lung and the “Mean ± SD (Log10 spores/g lung)” value ([2]; Part D, 1×10^2 conidia/animal, 10% aerosol, 5 doses, once daily for 5 days) was 2.49±0.16 Log10 spores/g lung. For the same compound, the Log10 spores/g lung ([2]; Part D, 1×10^2 conidia/animal, 10% aerosol, 5 doses, once daily for 5 days, individual mice) was 2.71 Log10 spores/g lung and 2.23 Log10 spores/g lung and 2.50 Log10 spores/g lung and 2.52 Log10 spores/g lung and 2.44 Log10 spores/g lung and 2.56 Log10 spores/g lung.
